{"source": "patent US6156765A", "about": "“Method of treating and preventing vasospasm” (The United States of America as represented by the …, priority 1996, dated 2000)", "key": {"[1]": {"experiment": "Blood pressure monitoring", "format": "in vivo, cynomologous macaques", "conditions": "all animals except pilot animal receiving 100 mg/kg/8 hours; 14-day treatment", "experimental": "(§1) Eleven (11) cynomologous macaques (8 male and 3 female, weight 3.0-5.9 kg.) were randomly divided into 2 groups. Craniotomy was performed in all animals and autologous clot was placed around the right middle cerebral artery (R MCA) after the arachnoid membrane was removed, as described elsewhere [Pluta et al., J. Neurosurg. 77:740-748 (1992)]. Six animals (3 male and 3 female) received IV infusion of 2,2'-dipyridyl (70 mg/kg/day) continuously for 14 days. Between postoperative days 7 and 10, cerebral arteriography was used to assess the presence and degree of vasospasm using methods previously described [Pluta et al., J. Neurosurg. 77:740-748 (1992)]. The five control animals (all male) received IV infusion of saline in a volume equal to that delivered in the experimental group (10-15 cc/kg/day). Two pilot animals were also used in an initial phase in order to establish an effective experimental dose. One received 44 mg/kg/day of IV 2,2'-dipyridyl, and the other received up to 100 mg/kg/8 hrs of IV 2,2'-dipyridyl.\n(§2) All studies were performed in the standard anteroposterior projection (AP). During the arteriography, the end-tidal CO2 was maintained at 40 mm Hg and core body temperature was maintained at 37 degrees Celsius using a heating pad. Blood pressures were monitored during all procedures."}, "[2]": {"experiment": "Serum iron concentration in treated animals", "format": "in vivo, cynomologous macaques", "conditions": "drug-treated animals, 70 mg/kg/day", "experimental": "as §1\nPlasma samples were collected on days 0 and 7 of each experiment and were analyzed by Maryland Medical Pathology (Rockville, Md.) for serum iron and percent transferrin saturation. Due to the molecular complexity of iron chelators, direct assays for these drugs are not available. […]"}, "[3]": {"experiment": "Clinical observations for signs of drug toxicity", "format": "in vivo, cynomologous macaques", "experimental": "as §1\nThe monkeys were observed daily for changes in weight, feeding, behavior, alertness, and neurologic function. The monkeys also were observed closely for signs of drug toxicity, including tremors, emesis, vomiting, diarrhea, seizures, and CNS depression [Sigma MSDS, CAS #366-18-7, 1994].\nPilot studies were done to determine the experimental dosage. […] The second pilot animal received up to 100 mg/kg/8 hours. […] These two pilot animals were then excluded from further data analysis."}, "[4]": {"tested_on": "right middle cerebral artery (R MCA)", "experiment": "Arteriographic vasospasm of the R MCA in primate model of SAH (autologous clot placement)", "format": "in vivo, cynomologous macaques", "conditions": "for arteriographic vasospasm: 70 mg/kg/day", "experimental": "as §1\nEach monkey underwent arteriographic study of the R MCA 3 to 21 days before surgery and 7 to 10 days after clot placement [Pluta et al., J. Neurosurg. 77:740-748 (1992)]. Under general anesthesia (ketamine 10 mg/kg and isoflurane) and sterile conditions, a cutdown of the right femoral artery was performed and a No. 3 French catheter was advanced to the right ICA. Fluoroscopy (C-arm; OEC) and intravenous contrast (2 cc Conray, 60%; Malinkrodt Medical, St. Louis, Mo.), were used to acquire subtraction images of the vessel. A radiopaque ruler was placed in the field to allow standardized measurements.\nas §2\nPlacement of Subarachnoid Clot and Indwelling Intravenous Catheter\nAs in previous studies [Pluta et al., J. Neurosurg. 77:740-748 (1992)], each animal was anesthetized as follows. Each monkey was given an injection of ketamine (10 mg/kg IM), atropine sulfate (0.05 mg/kg IM), and sodium thiopental (25 mg/kg IV). The animals were intubated and ventilated with isoflurane (0.5%-1.0%) and 100% O2 and paralyzed with pancuronium (0.1 mg/kg). Each animal was hyperventilated to an end-tidal CO2 of 30 to 40 mm Hg.\nEach animal was placed in the supine position for a right frontotemporal craniotomy. Under sterile conditions, the dura was opened and the R MCA was identified in the sylvian fissure. Using the operating microscope, the arachnoid membrane over the R MCA was dissected from the trifurcation to the origin of the vessel at the ICA bifurcation. 8-10 cc of autologous clotted arterial blood obtained by an assistant via a left femoral cutdown was then placed along the length of the exposed vessel. The dura was then closed in a watertight fashion, followed by the muscle and skin layers.\nEach animal was then repositioned for placement of a 6.6 French Broviac catheter in the left femoral vein. […] The distal end of the catheter was passed subcutaneously to the midscapular region and secured. Each monkey was fitted in a jacket containing an infusion pump (Disetronic Medical Systems, Plymouth, Minn.) which delivered 70 mg/kg (60 cc/24 hours) of the 2,2'-dipyridyl solution. Each monkey was sedated daily with ketamine (10 mg/kg IM) to change the delivery pump. […]"}, "[5]": {"tested_on": "liver, kidney, brain and other tissues", "experiment": "Gross and microscopic anatomic pathology", "format": "in vivo, cynomologous macaques", "design": "key to Toxicity Liver: L+: swelling of hepatocytes; L++: degeneration; L+++: lipidosis (#73, #105), regeneration (885N)", "conditions": "IV 70 mg/kg/day for 14 days", "experimental": "as §1\nTissues were studied for gross and microscopic anatomic pathology by Dr. Michael Eckhaus and staff (Veterinary Resources Program, National Center for Research Resources, NIH, Bethesda, Md.)."}, "transferrin": {"tested_on": "transferrin", "experiment": "Percent transferrin saturation in treated animals", "format": "in vivo, cynomologous macaques", "experimental": "as §1\nPlasma samples were collected on days 0 and 7 of each experiment and were analyzed by Maryland Medical Pathology (Rockville, Md.) for serum iron and percent transferrin saturation. Due to the molecular complexity of iron chelators, direct assays for these drugs are not available.\nData are reported as means of measurements by three individuals ±SEM and compared using an unpaired […] test. Significance was accepted at p<0.05."}, "[6]": {"conditions": "ferric iron; cited from earlier work"}, "[7]": {"conditions": "ferrous iron; cited from earlier work"}, "[8]": {"conditions": "Harada et al. 1992; Vollmer et al. 1991; cited from earlier work"}, "[9]": {"conditions": "Peters et al. 1966; Oubidar et al. 1994; cited from earlier work"}, "[10]": {"conditions": "NO versus oxygen; cited from earlier work"}, "[11]": {"conditions": "Afshar et al. 1995; cited from earlier work"}, "[12]": {"conditions": "background statement; cited from earlier work"}, "[13]": {"conditions": "pilot animal, IV 44 mg/kg/24 hours for 14 days"}}, "note": "Several values for one entry are separate records, joined by “and”; a condition that tells them apart may be missing. Equal values may be shown once."}
{"compound": "c1ccc(-c2ccccn2)nc1", "note": "[2,2'-dipyridyl]", "values": [{"measurement": "blood pressures during preoperative and postoperative arteriography", "setting": "[1]", "value": "stable and equivalent blood pressures"}, {"measurement": "serum iron, day 7 as compared to day 0", "setting": "[2]", "value": "markedly reduced"}, {"measurement": "toxicity at the effective dose", "setting": "[3]; 70 mg/kg/day", "value": "mild"}, {"measurement": "resolution of tremors and leg weakness, animal #1", "setting": "[3]; IV 70 mg/kg/day", "value": "≤ 4", "unit": "days"}, {"measurement": "resolution of tremors and leg weakness, animal #2", "setting": "[3]; IV 70 mg/kg/day", "value": "did not resolve in animal #2 by day 14"}, {"measurement": "resolution of tremors and leg weakness, animal #4", "setting": "[3]; IV 70 mg/kg/day", "value": "≤ 6", "unit": "days"}, {"measurement": "toxic symptoms", "setting": "[3]; animals #1, #2, and #4, IV 70 mg/kg/day for 14 days", "value": "mild tremors of the upper and lower extremities, and leg weakness"}, {"measurement": "toxic symptoms", "setting": "[3]; animals #3, #5, and #6, IV 70 mg/kg/day for 14 days", "value": "no toxic symptoms"}, {"measurement": "weight loss, changes in feeding habits, or alertness", "setting": "[3]; control or treated animals, IV 70 mg/kg/day for 14 days", "value": "None"}, {"measurement": "signs of toxicity", "setting": "[3]; [13]", "value": "no sign of toxicity"}, {"measurement": "symptoms of toxicity", "setting": "[3]; pilot animal, IV up to 100 mg/kg/8 hours, sacrificed on fourth day of drug delivery", "value": "symptoms of toxicity (tremors, emesis, and diarrhea)"}, {"measurement": "arteriographic vasospasm", "setting": "[4]; IV 70 mg/kg/day for 14 days, n=6, postoperative day 7-10", "value": "no arteriographic vasospasm"}, {"measurement": "arteriographic vasospasm", "setting": "[4]; IV 70 mg/kg/day for 14 days, n=6, postoperative day 7-10, listed as DP", "value": "no spasm"}, {"measurement": "mean AP area of the proximal portion of the MCA, of the baseline area", "setting": "[4]; IV 70 mg/kg/day for 14 days, n=6, postoperative day 7-10, mean ± SEM, p<0.0001, control 44.8%±4.6%", "value": "3.9%±4.3"}, {"measurement": "vasospasm (reduction of AP area of R MCA)", "setting": "[4]; [13]", "value": 20, "unit": "%"}, {"measurement": "vasospasm grade", "setting": "[4]; [13]", "value": "mild (reduction in the AP area of the defined segment of the MCA of 12-25%)"}, {"measurement": "brain changes (substantia nigra, cerebellum Purkinje cells)", "setting": "[5]", "value": "No brain changes"}, {"measurement": "gross pathology: brain, liver, kidney, lymph nodes, spleen, intestine, gonads, or skeletal or cardiac muscle", "setting": "[5]", "value": "no toxicity"}, {"measurement": "kidney pathology (collecting tubules), animals #2 and #5", "setting": "[5]", "value": "Multifocal casts"}, {"measurement": "kidney pathology, animals #1, #3, #4, or #6", "setting": "[5]", "value": "No sign of nephrotoxicity"}, {"measurement": "liver pathology, animals #1, #3, #4, and #5", "setting": "[5]", "value": "Hepato-cellular swelling"}, {"measurement": "liver pathology, animals #2 and #6", "setting": "[5]", "value": "Hepatocellular degeneration"}, {"measurement": "liver pathology, overall", "setting": "[5]", "value": "Mild changes"}, {"measurement": "microscopic pathology: brain (substantia nigra and cerebellar Purkinje cells), lymph nodes, spleen, intestine, gonads, or skeletal or cardiac muscle", "setting": "[5]", "value": "no toxicity"}, {"measurement": "Toxicity Liver", "setting": "[5]; individual monkey, 70 mg/kg/day", "value": "L+ and L++"}, {"measurement": "percent saturation of transferrin, change in treated animals", "setting": "transferrin; 70 mg/kg/day", "value": "decreased"}, {"measurement": "TransFe sat % Day 0", "setting": "transferrin; individual monkey, day 0, IV 70 mg/kg/day, 70 mg/kg/day", "value": "40% and 32% and 31% and 33%"}, {"measurement": "TransFe sat % Day 7", "setting": "transferrin; individual monkey, day 7, IV 70 mg/kg/day, 70 mg/kg/day", "value": "2% and 0% and -1% and -2% and -4%"}, {"measurement": "TransFe sat % Day 0, Mean", "setting": "transferrin; mean of table, day 0, IV 70 mg/kg/day", "value": "34 ± 4", "unit": "%"}, {"measurement": "TransFe sat % Day 7, Mean", "setting": "transferrin; mean of table, day 7, p < 0.0001, IV 70 mg/kg/day", "value": "-1.2 ± 2", "unit": "%"}]}
{"compound": "CC(=O)N(O)CCCCCNC(=O)CCC(=O)N(O)CCCCCNC(=O)CCC(=O)N(O)CCCCCN", "note": "[deferoxamine]", "values": [{"measurement": "deferoxamine-iron stability constant for Fe^+3", "setting": "[6]", "value": "10^31"}, {"measurement": "deferoxamine-iron stability constant for Fe^+2", "setting": "[7]", "value": "10^2 to 10^14"}, {"measurement": "success in potential therapies for vasospasm", "setting": "[8]", "value": "limited success"}, {"measurement": "CSF levels before toxic systemic effects appear", "setting": "[9]", "value": "adequate CSF levels cannot be achieved before toxic systemic effects appear"}, {"measurement": "penetrability of the blood-brain barrier", "setting": "[9]", "value": "limited penetrability"}]}
{"compound": "Hemoglobin: Hemoglobin has a strong affinity for NO", "values": [{"measurement": "binding to NO more readily than to oxygen", "setting": "[10]", "value": "1,500 fold"}]}
{"compound": "nitric oxide [NO]", "values": [{"measurement": "effect of intracarotid infusion on vasospasm", "setting": "[11]", "value": "reversal of vasospasm"}]}
{"compound": "oxyhemoglobin: the clinically-relevant vasospastic agent", "values": [{"measurement": "vasospastic activity", "setting": "[12]", "value": "vasospastic"}]}
